According to US9447069B2, “ROR modulators and their uses” (INNOV17 LLC, priority 2012, dated 2016):
Read-outs that look alike come from different tables or passages of the source.

Assays:
IL-17A [1] = assay: TH17 cytokine inhibition measured by ELISA (IL-17A); type: cell-based; details: 120 h; human TH17 cells, 5 days differentiation, ELISA of supernatants, 0.1% DMSO
Experimental: (§1) Peripheral blood mononuclear cells (PBMCs) were sourced from freshly prepared leukocyte enriched plasma (buffy coat) from healthy volunteers from which PBMCs were isolated by density gradient centrifugation using Ficoll-Paque™ PLUS (GE Healthcare). Naïve CD4+ T cells were isolated using the Naïve CD4+ T cell Isolation Kit II (Miltenyi Biotec) as per manufacturer's instructions. CD4+ T cells were plated at 5×10^4 cells/well in 96 well plates pre-coated with immobilized human (h)-αCD3 antibody (eBioscience) then differentiated to TH17 cells using h-αCD28, h-αIFN-γ, h-αIL-4, h-IL-6, h-IL-23, h-IL-1β, h-TGF-β1 (eBioscience) and maintained in a cell culture incubator at 37° C. with 5% CO2 in TexMACS Medium (Miltenyi Biotec) supplemented with 1% Penicillin/Streptomycin (Lonza) over 5 days.
(§2) Human CD4+ T cells were differentiated to TH17 cells as described in the presence or absence of various concentrations of compounds in a final concentration of 0.1% DMSO in TexMACS medium. Supernatants were collected and stored at −20° C. until they were to be assayed for IL-17A, IL-17F, IL-17AF, IL-21 and/or IL-22 levels as determined by Ready-Set-Go ELISA kits (eBioscience) as per manufacturer's instructions. Endpoint absorbance was read at 450 nm and 570 nm according to manufacturer's instructions (eBioscience) using a microplate reader (Perkin Elmer). The percentage of cytokine inhibition was calculated with reference to DMSO treated cells and the IC50s were determined by GraphPad Prism software and presented in the table below.

IL-17F [2] = assay: TH17 cytokine inhibition measured by ELISA (IL-17F); type: cell-based; details: 120 h; human TH17 cells, 5 days differentiation, ELISA of supernatants, 0.1% DMSO
Experimental: as §1, §2

IL-17AF = assay: TH17 cytokine inhibition measured by ELISA (IL-17AF); type: cell-based; details: 120 h; human TH17 cells, 5 days differentiation, ELISA of supernatants, 0.1% DMSO
Experimental: as §1, §2

IL-22 = assay: TH17 cytokine inhibition measured by ELISA (IL-22); type: cell-based; details: 120 h; human TH17 cells, 5 days differentiation, ELISA of supernatants, 0.1% DMSO
Experimental: as §1, §2

IL-21 = assay: TH17 cytokine inhibition measured by ELISA (IL-21); type: cell-based; details: 120 h; human TH17 cells, 5 days differentiation, ELISA of supernatants, 0.1% DMSO
Experimental: as §1, §2

TH17 cells = assay: TH17 cellular proliferation (Prestoblue); type: cell-based; details: Homo sapiens, 120 h; 3 μM compound, after 5 day TH17 differentiation, relative to DMSO treated TH17 cells; read-out: % change in TH17 cell number
Experimental: as §1
Cellular proliferation was assessed in the presence or absence of 3 μM compound using Prestoblue® Cell Viability Reagent (Life Technologies) as per manufacturer's instructions using absorbance as the output measured by a microplate reader (Perkin Elmer) after 30 minutes of incubation. A standard curve developed by plotting varying cell numbers versus absorbance was used to assess differences in cellular proliferation between compound treated or untreated cells after the 5 day TH17 differentiation period.

IL-17A [3] = assay: Real-Time qRT-PCR gene expression in TH17 cells (IL-17A); type: cell-based, human; set-up: key: A: No change in gene expression observed relative to DMSO treated Th17 cells; B: Decreased gene expression observed relative to DMSO treated Th17 cells; C: Increased gene expression observed relative to DMSO treated Th17 cells; details: normalized to six reference genes
Experimental: as §1
(§3) RNA was isolated from TH17 cells and cDNA was synthesized using the Verso cDNA kit (Thermo Scientific) as per manufacturer's instructions. IL-17A, IL-17F, IL-21, IL-22, G-CSF, IL-23R and FOXP3 gene expression were determined for compound treated and untreated TH17 cell samples using Solaris qPCR Gene expression assays (Thermo Scientific) with an iCycler iQ Real-Time PCR Detection System (Bio-Rad). Individual gene expression was normalized to a panel of six reference genes (ACTB, TBP, HPRT1, PGK1, TFRC and PPIA) (Thermo Scientific) and analyzed by REST 2009 (Qiagen) in accordance to MIQE guidelines (Bustin et al. (2009) Clin. Chem, 55:611-622). The effects of compounds on TH17 cytokine gene expression are presented as fold change in mRNA levels of compound treated TH17 cells relative to DMSO treated cells in the table below.

IL-17F [4] = assay: Real-Time qRT-PCR gene expression in TH17 cells (IL-17F); type: cell-based, human; set-up: key: A: No change in gene expression observed relative to DMSO treated Th17 cells; B: Decreased gene expression observed relative to DMSO treated Th17 cells; C: Increased gene expression observed relative to DMSO treated Th17 cells; details: normalized to six reference genes
Experimental: as §1, §3

RORγ LBD [5] = molecular target: T1, RORγ LBD (Homo sapiens, UniProt P51449); assay: RORγ LBD binding (Human RORγ Assay System, INDIGO Biosciences); set-up: purchased INDIGO Biosciences Inc; details: 0.5% DMSO
T1 sequence (P51449 269-508 limits assumed): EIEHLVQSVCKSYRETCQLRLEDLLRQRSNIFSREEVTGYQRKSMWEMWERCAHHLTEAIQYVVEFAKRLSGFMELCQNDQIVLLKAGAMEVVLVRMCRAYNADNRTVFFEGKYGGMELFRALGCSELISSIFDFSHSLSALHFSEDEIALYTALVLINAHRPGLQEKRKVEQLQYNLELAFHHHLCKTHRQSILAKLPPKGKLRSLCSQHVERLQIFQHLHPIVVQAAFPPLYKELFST
Experimental: Compound binding to the human RORγ LBD was assessed using the Human RORγ Assay System (INDIGO Biosciences Inc.) as per manufacturer's instructions.

RORγ LBD [6] = molecular target: T1, RORγ LBD; assay: TR-FRET D22 co-activator displacement from RORγ LBD; type: biochemical; set-up: purified GST-tagged (i) RORγ LBD or (ii) RORα LBD; purchased Life Technologies
From the text: The Time-Resolved Fluorescence Resonance Energy Transfer (TR-FRET) assay kit (Life Technologies) was used to measure compound efficacy to disrupt or enhance ligand-mediated interaction of the co-activator and co-repressor peptides with the purified GST-tagged (i) RORγ LBD or (ii) RORα LBD. The RORγ LBD and RORα LBD each have a basal level of interaction with the co-activator D22 or co-repressor NCoR1-D2 in the absence of ligand, thus it is possible to identify compounds that inhibit or induce RORγ and/or RORα co-activator/co-repressor interactions, thus determining RORα, RORγ, or RORα/RORγ compound selectivity. The assay was performed as per manufacturer's instructions and TR-FRET was assessed 2 and 20 hours post-assay initiation. Compounds were identified to (i) have no impact on either co-activator displacement or […] from the assessed LBD (ii) promote co-activator displacement from the assessed LBD (iii) promote co-repressor recruitment to the assessed LBD or (iv) concurrently promote co-activator displacement from the assessed LBD and co-repressor recruitment to the assessed LBD.

[7] = TR-FRET assessed 2 hr post-assay initiation, read-out: RORγ EC50 D22 co-activator displacement, 2 hr
[8] = TR-FRET assessed 20 hr post-assay initiation, read-out: RORγ EC50 D22 co-activator displacement, 20 hr

Row | SMILES | IC50 (IL-17A [1]) [µM] | IC50 (IL-17F [2]) [µM] | IC50 (IL-17AF) [µM] | IC50 (IL-22) [µM] | IC50 (IL-21) [µM] | inhibition at 3 µM (TH17 cells) [%] | Fold change in mRNA levels of compound treated TH17 cells relative to DMSO treated cells, IL-17A (IL-17A [3]) | Fold change in mRNA levels of compound treated TH17 cells relative to DMSO treated cells, IL-17F (IL-17F [4]) | IC50 (RORγ LBD [5]) [µM] | EC50 (RORγ LBD [6]; [7]) [µM] | EC50 (RORγ LBD [6]; [8]) [µM]
1 | Cc1cc(-c2ccc3c(c2)CCCN3Cc2ccc(C(O)(C(F)(F)F)C(F)(F)F)cc2)[nH]n1 [Example 1, 1,1,1,3,3,3-hexafluoro-2-(4-((6-(3-methyl-1H-pyrazol-5-yl)-3,4-dihydroquinolin-1(2H)-yl)methyl)phenyl)propan-2-ol] | < 10 | < 10 | < 10 | < 10 | < 10 | > 50 | A | B | > 10 | < 30 | < 30
2 | OC(c1ccc(CN2CCCc3cc(-c4cn[nH]c4)ccc32)cc1)(C(F)(F)F)C(F)(F)F [Example 2, 2-(4-((6-(1H-pyrazol-4-yl)-3,4-dihydroquinolin-1(2H)-yl)methyl)phenyl)-1,1,1,3,3,3-hexafluoropropan-2-ol] | < 10 | < 10 | < 10 | < 10 | < 10 | > 50 | B | B | > 10 | < 30 | < 30
3 | Cc1n[nH]c(-c2ccc3c(c2)CCCN3Cc2ccc(C(O)(C(F)(F)F)C(F)(F)F)cc2)n1 [Example 3, 1,1,1,3,3,3-hexafluoro-2-(4-((6-(3-methyl-1H-1,2,4-triazol-5-yl)-3,4-dihydroquinolin-1(2H)-yl)methyl)phenyl)propan-2-ol] | < 10 | < 10 | < 10 | < 10 | < 10 | > 50 | B | B | > 10 | < 30 | > 30
4 | Cc1cc(-c2ccc3c(c2)CCC(=O)N3Cc2ccc(C(O)(C(F)(F)F)C(F)(F)F)cc2)[nH]n1 [Example 4, 1-(4-(1,1,1,3,3,3-hexafluoro-2-hydroxypropan-2-yl)benzyl)-6-(3-methyl-1H-pyrazol-5-yl)-3,4-dihydroquinolin-2(1H)-one] | < 10 | < 10 | – | < 10 | – | ≤ 50 | B | B | < 10 | > 30 | > 30
5 | O=C1CCc2cc(-c3cn[nH]c3)ccc2N1Cc1ccc(C(O)(C(F)(F)F)C(F)(F)F)cc1 [Example 5, 1-(4-(1,1,1,3,3,3-hexafluoro-2-hydroxypropan-2-yl)benzyl)-6-(1H-pyrazol-4-yl)-3,4-dihydroquinolin-2(1H)-one] | < 10 | < 10 | < 10 | < 10 | < 10 | ≤ 50 | A | A | > 10 | > 30 | < 30
6 | Cc1n[nH]c(-c2ccc3c(c2)CCC(=O)N3Cc2ccc(C(O)(C(F)(F)F)C(F)(F)F)cc2)n1 [Example 6, 1-(4-(1,1,1,3,3,3-hexafluoro-2-hydroxypropan-2-yl)benzyl)-6-(3-methyl-1H-1,2,4-triazol-5-yl)-3,4-dihydroquinolin-2(1H)-one] | < 10 | > 10 | – | < 10 | – | ≤ 50 | B | B | > 10 | < 30 | < 30
